What is called IC50 is the point on the concentration scale where inhibition reaches its midpoint.

Data set [1] has as its system HBeAg (surrogate marker for cccDNA) in HepDES19 cells. Kind of data set: Engineered HepDES19 primary screen assay (HBeAg ELISA). In kind it is cell-based, HBV. The conditions noted are these: Hepatitis B virus, HepDES19, 120 h, read-out: IC50 (HBeAg level, HepDES19 primary screen assay), HepDES19 cells, 5 days compound incubation, HBeAg ELISA. The procedure, abridged:
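HepDES19 cells were induced by Tet withdrawal for 8 days, then treated with half-log compound dilutions (1% DMSO final) for 5 days at 37 °C. HBeAg was measured by ELISA as the cccDNA surrogate, viability by CCK-8, and IC50 from a 4-parameter logistic fit.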
A general note: ELISA stands for enzyme-linked immunosorbent assay.

Data set [2] is described as follows: Human microsome stability assay. In kind it is in vitro ADME. The conditions noted are these: human liver microsomes, 1 μM test compound, 0.5 mg/mL microsomal protein, 37° C., pH 7.4, 0-30 minutes. How it is done:
The human microsomal stability assay is used for early assessment of metabolic stability of a test compound in human liver microsomes.
Human liver microsomes (Cat. NO.: 452117, Corning, USA; Cat. NO.: H2610, Xenotech, USA) were preincubated with test compound for 10 minutes at 37° C. in 100 mM potassium phosphate buffer, pH 7.4. The reactions were initiated by adding NADPH regenerating system. The final incubation mixtures contained 1 μM test compound, 0.5 mg/mL liver microsomal protein, 1 mM MgCl2, 1 mM NADP, 1 unit/mL isocitric dehydrogenase and 6 mM isocitric acid in 100 mM potassium phosphate buffer, pH 7.4. After incubation times of 0, 3, 6, 9, 15 and 30 minutes at 37° C., 300 μL of cold ACN (including internal standard) was added to 100 μL incubation mixture to terminate the reaction. Following precipitation and centrifugation, the amount of compound remaining in the samples was determined by LC-MS/MS. Controls of no NADPH regenerating system at zero and 30 minutes were also prepared and analyzed.
Background: Liver microsomes are a subcellular fraction often used to study metabolism.

Turning to `COc1ccc2c(=O)cc(-c3ccc(C(F)(F)F)cc3OCCC(=O)O)oc2c1Cl` [Example A032, 3-[2-(8-chloro-7-methoxy-4-oxo-chromen-2-yl)-5-(trifluoromethyl)phenoxy]propanoic acid], in data set [1], the 50% inhibitory concentration (IC50) turned out to be 13 µM. In addition, the “Clearance of Human microsome” value in data set [2] is reported as 6.15 mL/min/kg.

Take `COc1cc(Cl)c2oc(-c3ccc(C(F)(F)F)cc3OCCC(=O)O)cc(=O)c2c1` [Example A033, 3-[2-(8-chloro-6-methoxy-4-oxo-chromen-2-yl)-5-(trifluoromethyl)phenoxy]propanoic acid]: the IC50 in data set [1] is 0.479 µM. Further, the “Clearance of Human microsome” value in data set [2] came to 6.15 mL/min/kg.

Take `Cc1c(-c2ccc(C(F)(F)F)cc2OCCC(=O)O)oc2c(Cl)cccc2c1=O` [Example A034, 3-[2-(8-chloro-3-methyl-4-oxo-chromen-2-yl)-5-(trifluoromethyl)phenoxy]propanoic acid]: the concentration for half-maximal inhibition (IC50) in data set [1] came out at 13.4 µM. For the same compound, in data set [2], the “Clearance of Human microsome” value was found to be 6.15 mL/min/kg.

As to `COc1cc(-c2cc(=O)c3cccc(Cl)c3o2)c(OCCC(=O)O)cc1OCC(F)(F)F` [Example A041, 3-[2-(8-chloro-4-oxo-chromen-2-yl)-4-methoxy-5-(2,2,2-trifluoroethoxy)phenoxy]propanoic acid], the IC50 in data set [1] was found to be 6.06 µM. For the same compound, the “Clearance of Human microsome” value in data set [2] came to 6.15 mL/min/kg.

Regarding `O=C(O)CCOc1cc(OC(F)(F)F)ccc1-c1cc(=O)c2ccc(C(F)(F)F)c(Cl)c2o1` [Example A042, 3-[2-[8-chloro-4-oxo-7-(trifluoromethyl)chromen-2-yl]-5-(trifluoromethoxy)phenoxy]propanoic acid], in data set [1], the concentration for half-maximal inhibition (IC50) was 17.8 µM. Moreover, the “Clearance of Human microsome” value in data set [2] was determined as 6.15 mL/min/kg.

As for `O=C(O)CCOc1cc(C(F)(F)F)ccc1-c1oc2c(Cl)cccc2c(=O)c1O` [Example A046, 3-[2-(8-chloro-3-hydroxy-4-oxo-chromen-2-yl)-5-(trifluoromethyl)phenoxy]propanoic acid], the IC50 in data set [1] worked out at 7.86 µM. For the same compound, the “Clearance of Human microsome” value in data set [2] was determined as 6.15 mL/min/kg.

For the compound `COc1c(-c2ccc(C(F)(F)F)cc2OCCC(=O)O)oc2c(Cl)cccc2c1=O` [Example A047, 3-[2-(8-chloro-3-methoxy-4-oxo-chromen-2-yl)-5-(trifluoromethyl)phenoxy]propanoic acid], the half-maximal inhibitory concentration (IC50) in data set [1] stood at 1.83 µM. Also, the “Clearance of Human microsome” value in data set [2] was determined as 6.15 mL/min/kg.

Turning to `COc1cc(OCC(=O)O)c(-c2cc(=O)c3cccc(Cl)c3o2)cc1OC` [Example A050, 2-[2-(8-chloro-4-oxo-chromen-2-yl)-4,5-dimethoxy-phenoxy]acetic acid], the IC50 in data set [1] turned out to be 11.8 µM. The “Clearance of Human microsome” value in data set [2] is given as 6.15 mL/min/kg.

Turning to `O=C(O)COc1cc(C(F)(F)F)ccc1-c1cc(=O)c2cccc(Cl)c2o1` [Example A051, 2-[2-(8-chloro-4-oxo-chromen-2-yl)-5-(trifluoromethyl)phenoxy]acetic acid], the IC50 in data set [1] is 2.41 µM. In data set [2], the “Clearance of Human microsome” value worked out at 6.15 mL/min/kg.

Consider `COc1cc(-c2cc(=O)c3cccc(Cl)c3o2)c(OCCCC(=O)O)cc1Br` [Example A058, 4-[5-bromo-2-(8-chloro-4-oxo-chromen-2-yl)-4-methoxy-phenoxy]butanoic acid], for which the IC50 in data set [1] was 0.549 µM. Further, the “Clearance of Human microsome” value in data set [2] was found to be 6.15 mL/min/kg.

Turning to `Cc1ccc(-c2cc(=O)c3cccc(Cl)c3o2)c(OCCCC(=O)O)c1` [Example A059, 4-[2-(8-chloro-4-oxo-chromen-2-yl)-5-methyl-phenoxy]butanoic acid], in data set [1], the concentration for half-maximal inhibition (IC50) was 0.622 µM. Also, the “Clearance of Human microsome” value in data set [2] turned out to be 8.34 mL/min/kg.

Turning to `COc1cc(OCCCC(=O)O)c(-c2cc(=O)c3cccc(Cl)c3o2)cc1C` [Example A060, 4-[2-(8-chloro-4-oxo-chromen-2-yl)-5-methoxy-4-methyl-phenoxy]butanoic acid], in data set [1], the concentration for half-maximal inhibition (IC50) is 5.36 µM. Further, in data set [2], the “Clearance of Human microsome” value amounted to 6.15 mL/min/kg.

As for `CC(C)(COc1cc(OC(F)(F)F)ccc1-c1cc(=O)c2cccc(Cl)c2o1)C(=O)O` [Example A061, 3-[2-(8-chloro-4-oxo-chromen-2-yl)-5-(trifluoromethoxy)phenoxy]-2,2-dimethyl-propanoic acid], the IC50 in data set [1] was found to be 15.9 µM. Also, the “Clearance of Human microsome” value in data set [2] amounted to 8.78 mL/min/kg.

On to `CC(C)(COc1cc(C(F)(F)F)ccc1-c1cc(=O)c2cccc(Cl)c2o1)C(=O)O` [Example A062, 3-[2-(8-chloro-4-oxo-chromen-2-yl)-5-(trifluoromethyl)phenoxy]-2,2-dimethyl-propanoic acid], for which the IC50 in data set [1] was 13 µM. In addition, the “Clearance of Human microsome” value in data set [2] is 9.88 mL/min/kg.

Turning to `Cc1ccc(-c2cc(=O)c3cccc(Cl)c3o2)c(OCC(C)(C)C(=O)O)c1` [Example A063, 3-[2-(8-chloro-4-oxo-chromen-2-yl)-5-methyl-phenoxy]-2,2-dimethyl-propanoic acid], the IC50 in data set [1] was found to be 1.35 µM. For the same compound, the “Clearance of Human microsome” value in data set [2] was 6.15 mL/min/kg.

Regarding `Cc1cc(-c2cc(=O)c3cccc(Cl)c3o2)c(OCC(C)(C)C(=O)O)cc1Cl` [Example A064, 3-[5-chloro-2-(8-chloro-4-oxo-chromen-2-yl)-4-methyl-phenoxy]-2,2-dimethyl-propanoic acid], in data set [1], the IC50 was determined as 9.59 µM. In data set [2], the “Clearance of Human microsome” value was determined as 9.5 mL/min/kg.

With `O=C(O)CCCCOc1cc(C(F)(F)F)ccc1-c1cc(=O)c2cccc(Cl)c2o1` [Example A065, 5-[2-(8-chloro-4-oxo-chromen-2-yl)-5-(trifluoromethyl)phenoxy]pentanoic acid], the IC50 in data set [1] came to 1.9 µM. Further, the “Clearance of Human microsome” value in data set [2] was determined as 6.15 mL/min/kg.

As to `COc1cc(OCC2(CC(=O)O)CC2)c(-c2cc(=O)c3cccc(Cl)c3o2)cc1OC` [Example A067, 2-[1-[[2-(8-chloro-4-oxo-chromen-2-yl)-4,5-dimethoxy-phenoxy]methyl]cyclopropyl]acetic acid], in data set [1], the IC50 is 1.68 µM. In data set [2], the “Clearance of Human microsome” value came to 6.15 mL/min/kg.

On to `O=C(O)CC1(COc2cc(Br)ccc2-c2cc(=O)c3cccc(Cl)c3o2)CC1` [Example A069, 2-[1-[[5-bromo-2-(8-chloro-4-oxo-chromen-2-yl)phenoxy]methyl]cyclopropyl]acetic acid], for which the half-maximal inhibitory concentration (IC50) in data set [1] came out at 2.73 µM. In addition, in data set [2], the “Clearance of Human microsome” value amounted to 6.15 mL/min/kg.

`CC(C)(Oc1cc(Br)ccc1-c1cc(=O)c2cccc(Cl)c2o1)C(=O)O` [Example A070, 2-[5-bromo-2-(8-chloro-4-oxo-chromen-2-yl)phenoxy]-2-methyl-propanoic acid]: the concentration for half-maximal inhibition (IC50) in data set [1] stood at 0.63 µM. The “Clearance of Human microsome” value in data set [2] was found to be 6.15 mL/min/kg.

Consider `CC(C)(CCCOc1cc(OC(F)(F)F)ccc1-c1cc(=O)c2cccc(Cl)c2o1)C(=O)O` [Example A071, 5-[2-(8-chloro-4-oxo-chromen-2-yl)-5-(trifluoromethoxy)phenoxy]-2,2-dimethyl-pentanoic acid], for which the concentration for half-maximal inhibition (IC50) in data set [1] was found to be 6.46 µM. The “Clearance of Human microsome” value in data set [2] is given as 7.4 mL/min/kg.

Regarding `O=C(COc1cc(C(F)(F)F)ccc1-c1cc(=O)c2cccc(Cl)c2o1)NC1CC(C(=O)O)C1` (centres unmarked) [Example A074, 3-[[2-[2-(8-chloro-4-oxo-chromen-2-yl)-5-(trifluoromethyl)phenoxy]acetyl]amino]cyclobutanecarboxylic acid], in data set [1], the IC50 was found to be 2.38 µM. The “Clearance of Human microsome” value in data set [2] is 6.15 mL/min/kg.
